Laboratory results reported in patent US10933053B2, “Treating infections with ceftolozane/tazobactam in subjects having impaired renal function” (MERCK SHARP & DOHME CORP., priority 2013, dated 2021).
Values belong to the molecule of their own block, whether it stands above or below them.

Tests used:
clinical [1] = conditions: for Cmax: mean (CV %); for Tmax: median (minimum, maximum)
Text: The intravenous formulation of CXA-201 can be prepared by reconstituting a fixed dose combination mixture of two active components (ceftolozane and tazobactam), and intravenously administering the reconstituted pharmaceutical composition. The pharmacokinetic (PK) profile of ceftolozane/tazobactam has been studied in several preclinical and clinical studies.
The pharmacokinetic (PK) profile of ceftolozane/tazobactam has been studied in several preclinical and clinical studies.

[2] = Binding to human plasma proteins; assay type: in vitro ADME; conditions: human, plasma; value used in Monte Carlo simulation; read-out: unbound fraction (Fu)
clinical [3] = conditions: human, in vivo
Text: The most common adverse reactions (≥5% in either indication) occurring in patients receiving CXA-201 were nausea, headache and diarrhea. Table 3 lists adverse reactions occurring in ≥1.0% of patients receiving CXA-201 in Phase 3 clinical trials.
The majority of adverse events were mild to moderate in severity, and the incidence of treatment-limiting adverse events was <2% in both treatment groups. Epidemiology and susceptibility of organisms isolated from patients with cUTI.

[4] = Phase I studies: impact of renal function on PK and safety of ceftolozane/tazobactam; assay type: in vivo, human; conditions: for median AUC0-∞ increase vs normal renal function / median Cmax increase vs normal renal function: moderate renal impairment; for median AUC0-∞ increase vs dose-normalized exposure in normal renal function / median Cmax increase vs dose-normalized exposure in normal renal function: severe renal impairment
Text: Male and female subjects, aged 18 to 79 years, with varying degrees of renal function were enrolled in two, prospective, open-label, phase I studies of intravenous ceftolozane/tazobactam. A total of 36 subjects were enrolled into cohorts based on degree of renal function: normal (n=11), mild impairment (n=6), moderate impairment (n=7), severe impairment (n=6), and ESRD on HD (n=6). To ensure subjects with ESRD were receiving effective HD, a target adequacy of HD calculated from the pre- and post-blood urea nitrogen ratios (Kt/V) of at least 1.2 for a minimum of 3 months prior to enrollment was required.
All cohorts received ceftolozane/tazobactam as an intravenous infusion over 1 h. The normal, mild, and moderate renal impairment cohorts received a single dose of ceftolozane/tazobactam 1,000 mg/500 mg; the severe renal impairment cohort received a single dose of ceftolozane/tazobactam 500 mg/250 mg; the ESRD cohort received a dose of ceftolozane/tazobactam 500 mg/250 mg initiated at the end of HD on day 1 and another dose initiated 2 h before HD on day 4. Subjects with ESRD underwent HD for 3 to 4 h using a high-flux membrane as scheduled; average dialysis flow rate was 600 to 800 ml/min. Revaclear hemodialyzers (Gambro, Stockholm, Sweden) were used in 5 subjects (ultrafiltration coefficient 50 to 60 ml/h/mmHg, high flux membrane of 1.4 to 1.8 m^2) and a CT 190G hemodialyzers (Baxter Healthcare, McGaw Park, Ill.) was used in 1 subject (ultrafiltration coefficient 36 ml/h/mmHg, high flux membrane of 1.9 m^2). The average blood flow rate was 400 to 600 ml/min with the exception of one subject with rates between 264 and 400 ml/min.
Plasma concentrations of ceftolozane and tazobactam were measured prior to, during, and following administration of ceftolozane/tazobactam. Blood samples were collected 30 min prior to administration, at the end of administration and at 5, 15, and 30 min and 1, 2, 3, 5, 7, 9, 11, 15, 25, and 35 h after completion of ceftolozane/tazobactam administration in the normal, mild, and moderate renal impairment cohorts. Severe renal impairment and ESRD cohorts off HD had samples taken 30 min prior to administration and at 0.5, 1, 1.5, 2, 3, 6, 9, 12, 24, 36, and 48 h after the start of administration. On the day of and following HD, the subjects with ESRD had samples taken 30 min prior to administration and at 0.5, 1, 1.5, 2, 3, 4, 5, 6, 9, 12, 24, 36, and 44 h after the start of the administration. The entire dialysate was collected at each of the following intervals: 0 to 1, 1 to 2, 2 to 3, and 3 h to the end of dialysis. Urine for PK analysis was obtained in the normal, mild, and moderate cohorts at 0 to 2, 2 to 4, 4 to 8, 8 to 12, 12 to 24, and 24 to 36 h after the start of ceftolozane/tazobactam administration. In the ESRD and severe renal impairment cohorts, urine was collected during the confinement period pre-dose, 0 to 24 h, and 24 to 48 h after the start of the administration, unless the subject was anuric. A validated LC/MS/MS method was utilized to analyze all plasma, urine, and dialysate samples for ceftolozane and tazobactam (MicroConstants Inc., San Diego, Calif.) (4). The lower limit of quantification (LLOQ) in plasma was 0.25 μg/ml for ceftolozane and 0.1 μg/ml for tazobactam. The assay was linear between 0.25 and 150 μg/ml for ceftolozane and between 0.1 and 50 μg/ml for tazobactam. […] The LLOQ in dialysate for both ceftolozane and tazobactam was 1 ng/ml and the assay was linear between 1 and 500 ng/ml. […] The LLOQ for ceftolozane and tazobactam in urine was 5 and 10 μg/ml, respectively, and the assay was linear between 5 and 5,000 μg/ml for ceftolozane and between 10 and 10,000 μg/ml for tazobactam.

[5] = subjects with normal renal function; cited from earlier work
P. aeruginosa = conditions: neutropenic murine-thigh infection model; cited from earlier work

AUC(0-t) (clinical [1]; human, in vivo): 172 µg·h/mL | CL renal (clinical [1]; human, in vivo): 56.8 to 112 mL/min | Cmax, mean (CV %) (clinical [1]; human, in vivo): 74.4 (14) μg/mL | clearance (clinical [1]; human, in vivo): 68.3 to 112 mL/min | t1/2, mean (CV %) (clinical [1]; human, in vivo): 3.12 (22) h | tmax, median (minimum, maximum) (clinical [1]; human, in vivo): 1.07 (1.0, 1.1) h | Cmax (clinical [1]; human, in vivo): 69100 ng/mL | half-life (clinical [1]; human, in vivo, t1/2, mean (CV %)): 2.77 h | half-life (clinical [1]; human, in vivo, terminal elimination half-life (t1/2β)): ~2.5 h | Tmax (clinical [1]; human, in vivo): 1.02 h | excreted in the urine as unchanged parent drug (clinical [1]; male, human, in vivo, iv): greater than 95% | fraction unbound [2]: 0.79 | AUC (clinical [3]): 1100 µg·h/mL
Structure (SMILES): Cn1c(N)c(NC(=O)NCCN)c[n+]1CC1=C(C(=O)O)N2C(=O)[C@@H](NC(=O)/C(=N\OC(C)(C)C(=O)O)c3nsc(N)n3)[C@H]2SC1 [Ceftolozane, (6R,7R)-3-[(5-amino-4-{[(2-aminoethyl)carbamoyl]amino}-1-methyl-1H-pyrazol-2-ium-2-yl)methyl]-7-({(2Z)-2-(5-amino-1,2,4-thiadiazol-3-yl)-2-[(1-carboxy-1-methylethoxy)imino]acetyl}amino)-8-oxo-5-thia-1-azabicyclo[4.2.0]oct-2-ene-2-carboxylate]
daily AUC previously shown to be safe and tolerable in humans (clinical [3]): 1100 µg·h/mL | median AUC0-∞ increase vs normal renal function [4]: 2.5 fold | median Cmax increase vs normal renal function [4]: 1.2 fold | median AUC0-∞ increase vs dose-normalized exposure in normal renal function [4]: 4.4 fold | median Cmax increase vs dose-normalized exposure in normal renal function [4]: 1.3 fold | median daily steady-state AUC [5]: 690 µg·h/mL | free-drug % T>MIC target associated with 1-log10 CFU reduction from baseline (bactericidal, 1-log kill) (P. aeruginosa): 32.2% | free-drug % T>MIC target associated with net bacterial stasis (P. aeruginosa): 24.8%

Structure (SMILES): C[C@]1(Cn2ccnn2)[C@H](C(=O)O)N2C(=O)C[C@H]2S1(=O)=O [Tazobactam, tazobactam]
excreted in the urine as the unchanged parent drug (clinical [1]; healthy volunteers): 80% | half-life (clinical [1]; human, in vivo, intravenous, terminal elimination half-life (t1/2β), healthy volunteers / normal renal function): ~1 h | AUC(0-t) (clinical [1]; human, plasma, intravenous, 1.5 g): 24.4 µg·h/mL | Cmax (clinical [1]; human, plasma, intravenous, 1.5 g, 1.5 g q8h 1-hour infusion, healthy adults, Day 1): 18400 ng/mL | Cmax (clinical [1]; human, plasma, intravenous, 1.5 g, 1.5 g q8h 1-hour infusion, healthy adults, Day 10): 18000 ng/mL | half-life (clinical [1]; human, plasma, intravenous, 1.5 g, t1/2, mean (CV %), 1.5 g q8h, healthy adults, Day 10): 1.03 h | Tmax (clinical [1]; human, plasma, intravenous, 1.5 g, 1.5 g q8h, healthy adults, Day 1): 1.02 h | half-life (clinical [1]; human, plasma, intravenous, terminal elimination half-life (t1/2β), healthy volunteers / normal renal function): ~1 h | excreted in the urine as unchanged parent drug (clinical [1]; single 1.5 g IV dose of CXA-201, healthy male adults): More than 80% | fraction unbound [2]: 0.7 | median AUC0-∞ increase vs normal renal function [4]: 2.2 fold | median Cmax increase vs normal renal function [4]: 1.6 fold | median AUC0-∞ increase vs dose-normalized exposure in normal renal function [4]: 3.8 fold | median Cmax increase vs dose-normalized exposure in normal renal function [4]: 1.9 fold | median daily steady-state AUC [5]: 89.4 µg·h/mL
